Assay results from patent US10053455B2, “Diazaspiroalkaneone-substituted oxazole derivatives as spleen tyrosine kinase inhibitors” (AB SCIENCE, priority 2014, dated 2018).
Where two headings read alike, the source gives them in different places.

Tests used:
c-Met = c-Met (Homo sapiens (Human), UniProt P08581); assay: HTRF kinase assay, c-Met; type: biochemical; settings: enzymatic determination
Experimental: (§1) Most of the kinases tested in this study were cloned, expressed and purified in the facilities of the inventors. They were expressed either as N-terminus hexahistidine-, hexahistidine-asparagine- or GST-tagged enzymes in a baculovirus or in a Colibacille expression system. Remaining enzymes (JAKs) were purchased from Millipore or Proqinase. For each enzyme, steady state kinetic parameters were determined and validated with known inhibitors.
(§2) The analysis of the effect of compounds on kinase activity was assessed with the HTRF® KinEASE assay (Cisbio International), an immuno-assay based on the quantification of the level of phosphorylation of a biotinylated peptide substrate using anti-phospho-specific antibody labeled with Europium (Eu^3+) cryptate. This assay comprises two steps: —an enzymatic step, during which the peptide substrate, the kinase, ATP, Mg^2+ and/or Mn^2+ are incubated with varying concentration of drug (from 0 to 10 μM); —a detection step, at the end of the reaction (stopped by addition of EDTA which chelates Mg^2+), the antibody anti-phospho peptide-Eu^3+ (emission 620 nm) and streptavidin XL-665 (emission 665 nm) are added to the reaction mix. […] Results are expressed in delta fluorescence (DF) unit defined as follow DF %=[(ratio−ratio blank)/(ratio blank)]*100, where ratio=(665 nm/620 nm)*10^4. […]

murine model of asthma = assay: Mouse model of asthma: airway responsiveness (FlexiVent); type: in vivo, Balb/c male mice; settings: ovalbumin-sensitized mice, PO twice daily
Experimental: Balb/c male mice, 8 weeks old, were purchased from Janvier (Le Genest-Saint-Isle; FRANCE) and bred in the animal facility for 4 weeks. Drugs were dissolved in drinking solvent (80% water; 10% Tween 80 and 10% isopropanediol). It was aliquoted and stored at −20° C. Each mouse received drugs twice a day. The weight of animals was calculated before and after treatment.
Mice, 9 weeks of age, were sensitized with 50 μg of ovalbumin (Sigma-Aldrich, Germany) adsorbed to 2 mg Al(OH)3 (Prolabo, France) and diluted in physiological saline (0.9% NaCl). Ovalbumin was injected intraperitoneally on days 1 and 7. Sensitization was followed by intranasal challenges with 10 μg of ovalbumin diluted in 0.9% NaCl, each day from day 18 to day 21. On days 17 to 21, animals treated with drugs received 100 μl of a solution at 15 mg/ml, at 7.5 mg/ml or at 3.75 mg/ml administered per os twice a day during 5 days. These treatments corresponded to concentration of 60 mg/mouse kg, 30 mg/mouse kg and 15 mg/mouse kg respectively.
The airway responsiveness was measured using the invasiveness FlexiVent® (SCIREQ) technique. […] The baseline values were measured after saline solution nebulization and airway hyperresponsiveness evaluated after nebulization of a 0.26M metacholine solution (50 mg/ml).

VEGFR1 = VEGFR1 (Homo sapiens (Human), UniProt P17948); assay: HTRF kinase assay, VEGFR1; type: biochemical; settings: enzymatic determination
Experimental: as §1, §2

human cardiomyocytes = assay: Intracellular ROS in human cardiomyocytes (CM-H2DCFDA); type: cell-based; settings: 10 μM, 8 hours
Experimental: (§3) 2×10^3 human cardiomyocytes (Promocell C-12810) or 4×10^4 rat neonatal cardiac myocytes (R-CM-561 Lonza) were seeded per well of a 96-well plate (black wall for fluorimetry usage (655090 Greiner Bio one)) 24 hours before drug treatment. Treatment was initiated by addition of a drug solution for a 10 μM final concentration. Doxorubicin was used at 5 μM as positive control for the induction of ROS. After 8 hours treatment with drugs, cells were loaded with 10 μM of CM-H2DCFDA (C6827 Invitrogen) for 1 hour, followed by 2 washes in PBS. CM-H2DCFDA is a membrane permeable reagent that can be enzymatically converted to dichlorodihydrofluorescein (DCF) in the presence of ROS. Fluorescent DCF was detected using a fluorescence spectrophotometer (BMG Labtech) with excitation of 485 nm and emission of 560 nm. The results were expressed as a relative percent of DCF-fluorescence in control cells.
(§4) Monitoring drug-induced increase in the production of reactive oxygen species (ROS) in cardiomyocyte may be important to predict the cardiotoxic side effects of a drug (Table 11). The production of ROS in human and rat cardiomyocytes was studied following 8 hours drug treatment at concentration of 10 μM. The results were expressed as a percent relative to the production of ROS induced by the cardiotoxic chemotherapeutic agent doxorubicin (100%).

TEL-SYK = TEL-SYK (Homo sapiens, UniProt P43405); assay: Cell-based proliferation assay on BaF3 model, TEL-SYK
Experimental: Cell-based proliferation and viability assay CellTiter-Bleue cell-based survival/proliferation assay (Promega G8080) was performed on BaF3 models.
(§5) A total of 1.10^4 cells/well/50 μl were seeded in a 96-wells plate. Treatment was initiated by addition of a 2× drug solution of ½ serial dilutions ranging from 0 to 10 μM. Cells were grown for 48-72 h at 37° C. and then incubated with 10 μl/well of Promega CellTiter-Bleue reagent for 4 h at 37° C. The amount of formazan dye formed was quantified by its absorbance at 450 nm using a scanning multiwell spectrophotometer (POLARstar Omega, BMG labtech, France). A blank well without cells was used as a background control for the spectrophotometer and all assays were performed in duplicates and the experiments were repeated at least twice.

BCR-ABL = BCR-ABL (Homo sapiens, UniProt P00519); assay: Cell-based proliferation assay on BaF3 model, BCR-ABL
Experimental: as §5, with “Cell-based proliferation and viability assay CellTiter-Bleue cell-based survival/proliferation assay (Promega G8080)” for “A total of 1.10^4 cells/well/50 μl were seeded in a 96-wells plate. Treatment”, “performed on BaF3 models. […]” for “initiated by addition of a 2× drug solution of ½ serial dilutions ranging from 0 to 10 μM.”

[1] = test system: rat neonatal cardiac myocytes; assay: Intracellular ROS in rat cardiomyocytes (CM-H2DCFDA); type: cell-based; settings: 10 μM, 8 hours
Experimental: as §3, §4

Jak2 = Jak2 (Homo sapiens (Human), UniProt O60674); assay: HTRF kinase assay, Jak2; type: biochemical; settings: enzymatic determination
Experimental: as §1, §2

Jak2, sequence (O60674 whole entry): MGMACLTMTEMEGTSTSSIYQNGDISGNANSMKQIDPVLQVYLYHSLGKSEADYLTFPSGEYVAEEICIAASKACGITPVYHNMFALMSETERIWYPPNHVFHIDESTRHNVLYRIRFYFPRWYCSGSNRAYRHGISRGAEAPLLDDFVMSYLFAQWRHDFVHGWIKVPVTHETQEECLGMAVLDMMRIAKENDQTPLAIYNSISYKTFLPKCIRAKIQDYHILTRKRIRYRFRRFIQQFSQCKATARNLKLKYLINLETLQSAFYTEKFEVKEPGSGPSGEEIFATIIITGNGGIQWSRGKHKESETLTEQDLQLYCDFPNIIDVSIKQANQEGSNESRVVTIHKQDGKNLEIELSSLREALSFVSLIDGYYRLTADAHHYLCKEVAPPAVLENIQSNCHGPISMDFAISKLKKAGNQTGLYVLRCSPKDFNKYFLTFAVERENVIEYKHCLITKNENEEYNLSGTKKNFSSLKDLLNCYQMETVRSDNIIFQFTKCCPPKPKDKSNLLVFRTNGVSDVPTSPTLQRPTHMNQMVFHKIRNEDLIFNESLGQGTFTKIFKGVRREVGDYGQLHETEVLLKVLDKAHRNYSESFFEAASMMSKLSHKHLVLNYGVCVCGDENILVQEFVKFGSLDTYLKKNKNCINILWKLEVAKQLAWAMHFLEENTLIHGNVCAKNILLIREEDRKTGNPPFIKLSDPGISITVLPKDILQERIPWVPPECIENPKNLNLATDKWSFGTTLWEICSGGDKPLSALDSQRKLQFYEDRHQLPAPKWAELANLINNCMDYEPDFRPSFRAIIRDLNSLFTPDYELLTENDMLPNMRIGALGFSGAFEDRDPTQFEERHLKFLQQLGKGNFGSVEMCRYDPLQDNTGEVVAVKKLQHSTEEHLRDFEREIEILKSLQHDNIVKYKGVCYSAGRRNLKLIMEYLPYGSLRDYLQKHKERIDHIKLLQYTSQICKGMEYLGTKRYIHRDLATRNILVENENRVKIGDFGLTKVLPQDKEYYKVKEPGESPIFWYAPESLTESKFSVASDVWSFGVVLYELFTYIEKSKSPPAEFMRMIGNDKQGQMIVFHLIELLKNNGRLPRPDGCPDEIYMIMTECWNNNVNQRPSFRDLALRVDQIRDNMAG
c-Met, sequence (P08581 25-1390): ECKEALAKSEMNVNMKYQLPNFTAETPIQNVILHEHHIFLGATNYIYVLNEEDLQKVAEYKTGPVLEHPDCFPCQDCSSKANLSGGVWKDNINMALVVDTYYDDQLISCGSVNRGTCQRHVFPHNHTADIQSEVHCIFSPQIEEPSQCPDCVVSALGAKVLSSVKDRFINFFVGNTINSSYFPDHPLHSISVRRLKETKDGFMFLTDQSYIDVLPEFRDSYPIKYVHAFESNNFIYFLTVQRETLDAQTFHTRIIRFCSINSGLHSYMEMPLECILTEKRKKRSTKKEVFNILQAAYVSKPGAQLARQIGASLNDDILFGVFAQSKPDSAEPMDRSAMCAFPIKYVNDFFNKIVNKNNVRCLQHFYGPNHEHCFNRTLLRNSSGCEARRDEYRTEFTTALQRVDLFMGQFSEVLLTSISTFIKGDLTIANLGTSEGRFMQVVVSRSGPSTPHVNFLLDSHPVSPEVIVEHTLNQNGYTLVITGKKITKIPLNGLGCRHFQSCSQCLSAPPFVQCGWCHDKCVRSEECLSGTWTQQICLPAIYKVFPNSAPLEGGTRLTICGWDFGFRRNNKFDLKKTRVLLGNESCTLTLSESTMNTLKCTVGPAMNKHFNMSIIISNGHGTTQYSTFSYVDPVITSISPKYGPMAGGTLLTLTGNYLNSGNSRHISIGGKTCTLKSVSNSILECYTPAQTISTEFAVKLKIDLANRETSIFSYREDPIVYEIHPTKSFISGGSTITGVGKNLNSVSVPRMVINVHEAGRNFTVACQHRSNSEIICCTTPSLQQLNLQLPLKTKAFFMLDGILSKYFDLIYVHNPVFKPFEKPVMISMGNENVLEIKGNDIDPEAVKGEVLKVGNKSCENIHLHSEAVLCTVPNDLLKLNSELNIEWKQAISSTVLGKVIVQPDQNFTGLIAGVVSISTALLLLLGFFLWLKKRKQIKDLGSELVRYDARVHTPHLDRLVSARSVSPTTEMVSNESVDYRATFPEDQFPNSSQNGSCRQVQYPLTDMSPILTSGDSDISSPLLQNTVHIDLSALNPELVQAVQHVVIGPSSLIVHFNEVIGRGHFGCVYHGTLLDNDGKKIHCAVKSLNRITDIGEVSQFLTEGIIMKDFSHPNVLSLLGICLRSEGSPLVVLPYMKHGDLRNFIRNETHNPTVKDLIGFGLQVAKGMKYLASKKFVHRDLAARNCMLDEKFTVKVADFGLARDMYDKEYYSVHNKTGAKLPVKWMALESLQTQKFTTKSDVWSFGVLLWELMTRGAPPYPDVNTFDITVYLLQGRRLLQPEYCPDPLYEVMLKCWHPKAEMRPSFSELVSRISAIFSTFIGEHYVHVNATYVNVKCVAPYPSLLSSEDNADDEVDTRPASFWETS
BCR-ABL, sequence (P00519 whole entry, looked up, stated change not applied): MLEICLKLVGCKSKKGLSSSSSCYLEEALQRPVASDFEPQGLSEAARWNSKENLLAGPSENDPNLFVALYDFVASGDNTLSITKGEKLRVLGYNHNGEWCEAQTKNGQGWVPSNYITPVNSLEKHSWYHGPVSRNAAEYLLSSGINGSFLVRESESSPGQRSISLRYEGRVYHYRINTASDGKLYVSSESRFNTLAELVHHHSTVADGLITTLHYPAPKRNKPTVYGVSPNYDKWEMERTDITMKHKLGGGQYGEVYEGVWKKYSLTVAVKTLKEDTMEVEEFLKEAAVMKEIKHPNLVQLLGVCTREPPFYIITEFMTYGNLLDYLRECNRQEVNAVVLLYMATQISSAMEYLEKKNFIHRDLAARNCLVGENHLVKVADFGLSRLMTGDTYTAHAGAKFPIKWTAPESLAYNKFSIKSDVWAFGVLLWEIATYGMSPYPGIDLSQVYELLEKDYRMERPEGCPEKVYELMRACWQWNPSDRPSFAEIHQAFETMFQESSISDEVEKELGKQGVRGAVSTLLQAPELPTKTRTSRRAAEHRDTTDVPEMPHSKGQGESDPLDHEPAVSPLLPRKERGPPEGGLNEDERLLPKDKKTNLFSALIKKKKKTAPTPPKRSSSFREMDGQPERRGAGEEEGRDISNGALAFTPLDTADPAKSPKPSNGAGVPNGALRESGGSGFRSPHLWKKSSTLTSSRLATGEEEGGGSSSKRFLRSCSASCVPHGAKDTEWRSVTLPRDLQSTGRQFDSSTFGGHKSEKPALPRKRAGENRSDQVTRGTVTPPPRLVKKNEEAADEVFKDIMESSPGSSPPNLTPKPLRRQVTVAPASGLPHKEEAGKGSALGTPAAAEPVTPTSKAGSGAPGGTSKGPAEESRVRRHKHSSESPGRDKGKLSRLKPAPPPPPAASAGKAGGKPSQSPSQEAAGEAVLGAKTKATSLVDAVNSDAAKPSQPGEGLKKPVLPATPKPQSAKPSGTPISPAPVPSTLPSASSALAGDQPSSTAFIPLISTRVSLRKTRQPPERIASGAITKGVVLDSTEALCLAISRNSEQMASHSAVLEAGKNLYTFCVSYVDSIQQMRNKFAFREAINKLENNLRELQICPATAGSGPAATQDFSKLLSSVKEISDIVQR
VEGFR1, sequence (P17948 27-1338, species assumed): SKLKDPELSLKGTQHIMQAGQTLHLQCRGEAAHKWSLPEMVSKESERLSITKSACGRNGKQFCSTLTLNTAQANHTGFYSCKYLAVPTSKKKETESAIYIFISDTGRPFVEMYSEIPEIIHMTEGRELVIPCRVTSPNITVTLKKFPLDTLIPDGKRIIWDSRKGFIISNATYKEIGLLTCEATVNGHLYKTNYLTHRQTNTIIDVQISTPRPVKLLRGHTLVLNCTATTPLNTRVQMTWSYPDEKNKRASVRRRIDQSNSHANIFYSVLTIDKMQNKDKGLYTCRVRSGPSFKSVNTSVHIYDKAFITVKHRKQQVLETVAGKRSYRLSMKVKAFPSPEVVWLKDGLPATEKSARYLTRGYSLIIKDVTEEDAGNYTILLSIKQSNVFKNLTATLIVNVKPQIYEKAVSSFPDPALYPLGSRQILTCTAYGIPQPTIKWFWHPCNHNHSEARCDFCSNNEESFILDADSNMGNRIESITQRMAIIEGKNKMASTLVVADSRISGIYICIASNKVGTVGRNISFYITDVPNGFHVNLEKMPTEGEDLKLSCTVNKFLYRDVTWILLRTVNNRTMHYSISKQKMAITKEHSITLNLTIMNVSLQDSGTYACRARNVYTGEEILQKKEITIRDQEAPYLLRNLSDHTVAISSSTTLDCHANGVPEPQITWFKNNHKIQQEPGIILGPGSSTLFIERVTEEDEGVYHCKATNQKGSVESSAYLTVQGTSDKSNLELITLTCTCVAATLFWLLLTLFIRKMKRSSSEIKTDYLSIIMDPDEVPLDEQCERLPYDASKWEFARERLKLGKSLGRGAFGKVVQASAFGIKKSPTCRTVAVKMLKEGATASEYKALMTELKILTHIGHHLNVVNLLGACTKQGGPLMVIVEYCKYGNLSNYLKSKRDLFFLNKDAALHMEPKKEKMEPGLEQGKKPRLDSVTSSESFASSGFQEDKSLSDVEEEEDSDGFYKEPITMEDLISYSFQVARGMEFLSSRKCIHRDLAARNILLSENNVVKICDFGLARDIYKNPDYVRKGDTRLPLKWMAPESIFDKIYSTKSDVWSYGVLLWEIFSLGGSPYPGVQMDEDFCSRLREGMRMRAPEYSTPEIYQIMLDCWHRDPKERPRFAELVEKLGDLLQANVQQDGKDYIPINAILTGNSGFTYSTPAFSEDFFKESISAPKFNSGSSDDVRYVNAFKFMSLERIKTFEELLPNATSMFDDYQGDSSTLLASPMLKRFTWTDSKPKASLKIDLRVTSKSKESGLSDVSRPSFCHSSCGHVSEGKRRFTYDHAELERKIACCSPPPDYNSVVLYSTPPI

## Cc1ccnc(Nc2cccc(-c3cnc(N4CCNC(=O)C45CC5)o3)c2)n1 [Compound 001, 4-{5-[3-(4-Methyl-pyrimidin-2-ylamino)-phenyl]-oxazol-2-yl}-4,7-diaza-spiro[2.5]octan-8-one]
c-Met
  IC50: 10 µM
Murine model of asthma
  bronchial hyper-responsiveness: reduced bronchial hyper-responsiveness in a dose-dependent manner
VEGFR1
  IC50: 7.5 µM
Human cardiomyocytes
  ROS production, activity relative to doxorubicine (100%), Hu-CM: 0%
TEL-SYK; read-out: Kinase activity profile IC50 Tel-Syk
  IC50: 0.272 µM
TEL-SYK; read-out: TEL-SYK IC50
  IC50: 0.27 µM
BCR-ABL
  IC50: 10 µM
[1]
  ROS production, activity relative to doxorubicine (100%), Rat-CM: 0%
Jak2; read-out: Jak2 IC50
  IC50: 0.9 µM
Jak2; read-out: Kinase activity profile IC50 JAK 2
  IC50: 0.92 µM
